Reference: patent US8927715B2, “Inhibitors of 11β-hydroxysteroid dehydrogenase type 1” (Vitae Pharmaceuticals, Inc., priority 2006, dated 2015)

Target: human 11β-HSD1 (Homo sapiens, UniProt P28845)
Test: Inhibition of a microsomal preparation of 11β-HSD1, SPA (Biological Test Example 2)
Assay type: biochemical
Design: expressed in transfected cells; host or cells: CHO cells (microsomes)
Settings: read-out: Biological Test Example 2 (IC50 class)
Description: All reactions are carried out at room temperature in 96 well clear flexible PET Microbeta plates (PerkinElmer). […] After a 10 minute pre-incubation, 50 μL of enzyme solution containing microsomes isolated from CHO cells overexpressing human 11β-HSD1 (10-20 μg/ml of total protein) is added, and the plates are then incubated for 90 minutes at room temperature. The reaction is stopped by adding 50 μl of the SPA beads suspension containing […] 18β-glycyrrhetinic acid, 5 mg/ml protein A coated YSi SPA beads (GE Healthcare) and 3.3 μg/ml of anti-cortisol antibody (East Coast Biologics) in Superblock buffer (Bio-Rad). The plates are then shaken for 120 minutes at room temperature, and the SPA signal corresponding to [^3H]cortisol is measured on a Microbeta plate reader.

Sequence of human 11β-HSD1 (P28845 whole entry): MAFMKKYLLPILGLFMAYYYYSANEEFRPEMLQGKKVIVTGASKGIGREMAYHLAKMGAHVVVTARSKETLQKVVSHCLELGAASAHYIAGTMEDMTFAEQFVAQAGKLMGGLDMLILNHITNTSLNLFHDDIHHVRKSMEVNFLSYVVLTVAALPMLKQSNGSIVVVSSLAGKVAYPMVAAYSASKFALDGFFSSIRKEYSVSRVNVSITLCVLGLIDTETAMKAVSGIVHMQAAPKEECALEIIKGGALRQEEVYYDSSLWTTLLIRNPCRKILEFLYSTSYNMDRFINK

IC50 [nM] | Structure (SMILES)
50 to 1000 | O=C(O)CC1CC2(CCN(C(=O)NC3C4CC5(O)CC3CC(O)(C4)C5)CC2)c2c(Br)cccc21 (racemic) [Example 76, (±)-2-(7-Bromo-1′-(1,7-dihydroxy-4-adamantylcarbamoyl)-2,3-dihydrospiro[indene-1,4′-piperidine]-3-yl)acetic acid]
< 50 | O=C(NC1C2CC3CC(C2)CC1C3)N1CCC2(CC1)CC(CCO)c1cccc(Br)c12 (racemic) [Example 122, (±)-7-Bromo-N-(2-adamantyl)-3-(2-hydroxyethyl)-2,3-dihydrospiro[indene-1,4′-piperidine]-1′-carboxamide]
< 50 | CC(C)(CO)C1CC2(CCN(C(=O)NC3C4CC5CC(C4)CC3C5)CC2)c2c(Br)cccc21 (racemic) [Example 123, (±)-7-Bromo-N-(2-adamantyl)-3-(1-hydroxy-2-methylpropan-2-yl)-2,3-dihydrospiro[indene-1,4′-piperidine]-1′-carboxamide]
< 50 | O=C(NC1C2CC3CC(C2)CC1C3)N1CCC2(CC1)NC(=S)c1ccccc12 (stereo not drawn) [87, Step 1 Product]
< 50 | CN1C(=S)c2ccccc2C12CCN(C(=O)NC1C3CC4CC(C3)CC1C4)CC2 (stereo not drawn) [103, Step 1 Product]
< 50 | CS(=O)(=O)N1Cc2ccccc2C2(CCN(C(=O)NC3C4CC5CC(C4)CC3C5)CC2)C1 (stereo not drawn) [Example 34, N-(2-Adamantyl)-2-(methylsulfonyl)-2,3-dihydro-1H-spiro[isoquinoline-4,4′-piperidine]-1′-carboxamide]
< 50 | CCOC(=O)N1Cc2ccccc2C2(CCN(C(=O)NC3C4CC5CC(C4)CC3C5)CC2)C1 (stereo not drawn) [Example 36, Ethyl 1′-((2-adamantyl)carbamoyl)-1H-spiro[isoquinoline-4,4′-piperidine]-2(3H)-carboxylate]
< 50 | O=C(OC1C2CC3CC(C2)CC1C3)N1CCC2(CC1)CNCc1ccccc12 (stereo not drawn) [Example 38, 2-Adamantyl 2,3-dihydro-1H-spiro[isoquinoline-4,4′-piperidine]-1′-carboxylate]
< 50 | CS(=O)(=O)N1Cc2ccccc2C2(CCN(C(=O)OC3C4CC5CC(C4)CC3C5)CC2)C1 (stereo not drawn) [Example 39, 2-Adamantyl 2-(methylsulfonyl)-2,3-dihydro-1H-spiro[isoquinoline-4,4′-piperidine]-1′-carboxylate]
< 50 | N#Cc1ccc(N2Cc3ccccc3C3(CCN(C(=O)OC4C5CC6CC(C5)CC4C6)CC3)C2)nc1 (stereo not drawn) [Example 41, 2-Adamantyl 2-(5-cyanopyridin-2-yl)-2,3-dihydro-1H-spiro[isoquinoline-4,4′-piperidine]-1′-carboxylate]
< 50 | NC(=O)C12CC3CC(C1)C(OC(=O)N1CCC4(CC1)CC(CC(=O)O)c1ccccc14)C(C3)C2 (stereo not drawn) [Example 73, 2-(1′-((1-Carbamoyl-4adamantyloxy)carbonyl)-2,3-dihydrospiro[indene-1,4′-piperidine]-3-yl)acetic acid]
< 50 | O=C(O)CC1CC2(CCN(C(=O)NC3C4CC5CC3CC(F)(C5)C4)CC2)c2c(Br)cccc21 (stereo not drawn) [Example 74]
< 50 | COc1ccc2c(c1)CCNC21CCN(C(=O)NC2C3CC4CC(C3)CC2C4)CC1 (stereo not drawn) [Example 77, N-(2-Adamantyl)-6-methoxy-3,4-dihydro-2H-spiro[isoquinoline-1,4′-piperidine]-1′-carboxamide]
< 50 | COC(=O)CC1CCC2(CC1)CCN(C(=O)OC1C3CC4CC(C3)CC1C4)CC2 (stereo not drawn) [Example 79, (2-Adamantyl) 9-(2-methoxy-2-oxoethyl)-3-azaspiro[5.5]undecane-3-carboxylate]
50 to 1000 | O=C(O)CC1CCC2(CC1)CCN(C(=O)OC1C3CC4CC(C3)CC1C4)CC2 (stereo not drawn) [Example 80, 2-(3-((2-Adamantyl)oxycarbonyl)-3-azaspiro[5.5]undecan-9-yl)acetic acid]

The next lines start with the molecule.

Structure (SMILES) | IC50 [nM]
CC(C)(C(=O)O)C1CC2(CCN(C(=O)NC3C4CC5CC(C4)CC3C5)CC2)c2c(Br)cccc21 (racemic) [Example 68, (±)-2-(7-Bromo-1′-((2-adamantyl)carbamoyl)-2,3-dihydrospiro[indene-1,4′-piperidine]-3-yl-2-methylpropanoic acid] | < 50
CS(=O)(=O)NC(=O)CC1CC2(CCN(C(=O)OC3C4CC5CC(C4)CC3C5)CC2)c2c(Br)cccc21 (racemic) [Example 69, (±)-2-Adamantyl 7-bromo-3-(2-(methylsulfonamido)-2-oxoethyl)-2,3-dihydrospiro[indene-1,4′-piperidine]-1′-carboxylate] | < 50
CS(=O)(=O)NC(=O)CC1CC2(CCN(C(=O)NC3C4CC5CC(C4)CC3C5)CC2)c2c(Br)cccc21 (racemic) [Example 70, (±)-7-Bromo-N-(2-adamantyl)-3-(2-(methylsulfonamido)-2-oxoethyl)-2,3-dihydrospiro[indene-1,4′-piperidine]-1′-carboxamide] | < 50
CN(C)C(=O)CC1CC2(CCN(C(=O)OC3C4CC5CC(C4)CC3C5)CC2)c2ccccc21 (racemic) [Example 71, (±)-2-Adamantyl 3-(2-(dimethylamino)-2-oxoethyl)-2,3-dihydrospiro[indene-1,4′-piperidine]-1′-carboxylate] | < 50
O=C(O)[C@@H]1C[C@H]1C(=O)N1Cc2ccccc2C2(CCN(C(=O)OC3C4CC5CC(C4)CC3C5)CC2)C1 (mixture of isomers) [Example 100, (1RS,2RS)-2-(1′-(2-Adamantyloxycarbonyl)-2,3-dihydro-1H-spiro[isoquinoline-4,4′-piperidine]-2-ylcarbonyl)cyclopropanecarboxylic acid] | < 50
NCC1CC2(CCN(C(=O)OC3C4CC5CC(C4)CC3C5)CC2)c2c(Br)cccc21 (racemic) [Example 124, (±)-2-Adamantyl 3-(aminomethyl)-7-bromo-2,3-dihydrospiro[indene-1,4′-piperidine]-1′-carboxylate] | < 50
CN(C)CC1CC2(CCN(C(=O)OC3C4CC5CC(C4)CC3C5)CC2)c2c(Br)cccc21 (racemic) [Example 125, (±)-2-Adamantyl 7-bromo-3-((dimethylamino)methyl)-2,3-dihydro spiro[indene-1,4′-piperidine]-1′-carboxylate] | < 50
O=C(NC1C2CC3CC(C2)CC1C3)N1CCC2(CC1)CC(CCN1CCOCC1)c1cccc(Br)c12 (racemic) [Example 126, (±)-7-Bromo-N-(2-adamantyl)-3-(2-morpholinoethyl)-2,3-dihydrospiro[indene-1,4′-piperidine]-1′-carboxamide] | < 50
NC(=O)CC1CC2(CCN(C(=O)NC3C4CC5CC(C4)CC3C5)CC2)c2c(Br)cccc21 (racemic) [Example 131, (±)-3-(2-amino-2-oxoethyl)-7-bromo-N-(2-adamantyl)-2,3-dihydrospiro[indene-1,4′-piperidine]-1′-carboxamide] | < 50
O=C(NC1C2CC3CC(C2)CC1C3)N1CCCC2(Cc3ccccc3C2=O)C1 (stereo not drawn) [27, Step 1 Product] | < 50
O=C(NC1C2CC3CC(C2)CC1C3)N1CCCC2(Cc3ccccc3C2O)C1 (stereo not drawn) [27, Step 2 Product] | < 50
O=C(NC1C2CC3CC(C2)CC1C3)N1CCC2(CCc3ccccc32)CC1 (stereo not drawn) [Example 28, N-(2-Adamantyl)-2,3-dihydrospiro[indene-1,4′-piperidine]-1′-carboxamide] | < 50
CCOC(=O)CCN1Cc2ccccc2C2(CCN(C(=O)OC3C4CC5CC(C4)CC3C5)CC2)C1 (stereo not drawn) [Example 32] | < 50
CNC(=O)N1Cc2ccccc2C2(CCN(C(=O)NC3C4CC5CC(C4)CC3C5)CC2)C1 (stereo not drawn) [Example 35, N1′-(2-Adamantyl)-N2-methyl-1H-spiro[isoquinoline-4,4′-piperidine]-1′,2(3H)-dicarboxamide] | < 50
CC(C)(C)OC(=O)N1Cc2ccccc2C2(CCN(C(=O)OC3C4CC5CC(C4)CC3C5)CC2)C1 (stereo not drawn) [Example 37, 2-Tert-butyl 1′-(2-adamantyl) 1H-spiro[isoquinoline-4,4′-piperidine]-1′,2(3H)-dicarboxylate] | < 50
CC(C)S(=O)(=O)N1Cc2ccccc2C2(CCN(C(=O)OC3C4CC5CC(C4)CC3C5)CC2)C1 (stereo not drawn) [Example 40, 2-Adamantyl 2-(isopropylsulfonyl)-2,3-dihydro-1H-spiro[isoquinoline-4,4′-piperidine]-1′-carboxylate] | < 50
CC(C(=O)O)C1CC2(CCN(C(=O)NC3C4CC5CC(C4)CC3C5)CC2)c2c(Br)cccc21 (stereo not drawn) [Example 66, 2-(7-Bromo-1′-((2-adamantyl)carbamoyl)-2,3-dihydrospiro[indene-1,4′-piperidine]-3-yl)propanoic acid] | < 50
COc1cc(CNC(=O)C23CC4CC(C2)C(OC(=O)N2CCC5(CC2)CC(CC(=O)O)c2ccccc25)C(C4)C3)cc(OC)c1 (stereo not drawn) [Example 72, 2-(1′-((1-(3,5-Dimethoxybenzylcarbamoyl)-4-adamantyloxy)carbonyl)-2,3-dihydrospiro[indene-1,4′-piperidine]-3-yl)acetic acid] | 50 to 1000
O=C(NC1C2CC3CC(C2)CC1C3)N1CCC2(CCCc3ccccc32)CC1 (stereo not drawn) [Example 78, N-(2-Adamantyl)-3,4-dihydro-2H-spiro[naphthalene-1,4′-piperidine]-1′-carboxamide] | < 50
COC(=O)CC1CCC2(CC1)CCN(C(=O)NC1C3CC4CC(C3)CC1C4)CC2 (stereo not drawn) [Example 81, Methyl 2-(3-((2-adamantyl)carbamoyl)-3-azaspiro[5.5]undecan-9-yl)acetate] | < 50
O=C(O)CC1CCC2(CC1)CCN(C(=O)NC1C3CC4CC(C3)CC1C4)CC2 (stereo not drawn) [Example 82, 2-(3-((2-Adamantyl)carbamoyl)-3-azaspiro[5.5]undecan-9-yl)acetic acid] | 50 to 1000
